From patent US20240301319A1, “PERFUMING COMPOSITIONS” (FIRMNICH SA, priority 2017, published 2024)

Tests used:
[1] = Volatility of perfuming compounds (Tables 4 to 10), with top/middle/bottom note type; format: physicochemical
Protocol: In some aspects, the first perfume accord comprises perfuming compounds having a volatility ranging from 70,000 to 100 μg/l in air. In some aspects, perfuming compounds having a volatility ranging from 70,000 to 100 μg/l in air are referred to as “top notes”.
In some aspects, the second perfume accord comprises perfuming compounds having a volatility ranging from 99 to 50 μg/l in air. In some aspects, perfuming compounds having a volatility ranging from 99 to 50 μg/l in air are referred to as “middle notes”.
In some aspects, the third perfume accord comprises perfuming compounds having a volatility ranging from 49 to 0.1 μg/l in air. In some aspects, perfuming compounds having a volatility ranging from 49 to 0.1 μg/l in air are referred to as “bottom notes”.
Tables 4 to 10 describe top, middle and bottom note perfuming compounds for watery, green, fruity, citrus, sweet, gourmand and woody notes respectively.

[2] = Odor threshold and odor value of perfuming compounds (Tables 4 to 10)
[3] = note type (Top/Middle/Bottom) by volatility, perfuming compounds having a green note
[4] = perfuming compounds having a green note
[5] = Table 6, perfuming compounds having a fruity note
[6] = Table 6, perfuming compounds having a fruity note, note type by volatility
[7] = Table 7, citrus note, top, middle or bottom note
[8] = Table 7, citrus note, equals volatility divided by odor threshold
[9] = Table 10, perfuming compounds having a woody note, note type by volatility
[10] = Table 8, perfuming compounds having a sweet note

Type [1, 3]	Volatility (μg/l air) [1, 4]	Volatility [1, 5]	Type [1, 6]	Volatility (μg/l air) ([1]; Table 7, citrus note)	Type [1, 7]	Molecule	Odor Threshold (μg/l air) [2, 4]	Odor Threshold (μg/l air) ([2]; Table 7, citrus note)	Odor Value [2, 8]	further results
Top	22184.00 μg/l air					CCCCCCC=O [HEPTANAL]	2.03E−03 μg/l air			
				99.84 μg/l air	Middle	(2RS,4SR)-4-methyl-2-phenyltetrahydro-2H-pyran (A) + (2RS,4RS)-4-methyl-2-phenyltetrahydro-2H-pyran (B)		1.04E−03 μg/l air	9.61E+04	
Top	2777.63 μg/l air			2777.63 μg/l air	Top	CCCCCCCCC=O [nonanal]	8.14E−03 μg/l air	8.14E−03 μg/l air	3.41E+05	
				291.85 μg/l air	Top	cis-4-(2-methyl-2-propanyl)cyclohexyl acetate (A) + trans-4-(2-methyl-2-propanyl)cyclohexyl acetate (B)		5.43E−02 μg/l air	5.37E+03	

The remaining lines, values behind:

Molecule	Type [1, 3]	Volatility (μg/l air) [1, 4]	Volatility [1, 5]	Type [1, 6]	Volatility (μg/l air) ([1]; Table 7, citrus note)	Type [1, 7]	Odor Threshold (μg/l air) [2, 4]	Odor Threshold (μg/l air) ([2]; Table 7, citrus note)	Odor Value [2, 8]	further results
CCC(C)C(=O)OC(C)C (racemic) [(+−)-ISOPROPYL 2-METHYLBUTANOATE]			51367.63 μg/l air	TOP (perfuming compounds having a volatility ranging from 70,000 to 100 μg/l in air are referred to as “top notes”)	51367.63 μg/l air	Top		8.42E−03 μg/l air	6.10E+06	
CC1CC(C)(C)OC(Cc2ccccc2)O1 (centres unmarked)	Bottom	29.99 μg/l air					5.26E−02 μg/l air			
CC(C)(O)CCC1CCCCC1 [4-CYCLOHEXYL-2-METHYL-2-BUTANOL]			79.34 μg/l air	Middle	79.34 μg/l air	Middle		2.83E−02 μg/l air	2.81E+03	Odor Threshold [2, 5]: 2.83E−02 μg/l air; Odor Value [2, 5]: 2.81E+03
CC1CC[C@@]2(O1)C(C)(C)CCC[C@@]2(C)O (mixture of isomers)										Type [1, 9]: Middle; Volatility ([1]; Table 10, woody note): 84.04 μg/l air; Odor Threshold ([2]; Table 10, woody note): 5.15E−04 μg/l air
CC(=O)/C=C/C1=C(C)CCCC1(C)C [(3E)-4-(2,6,6-trimethyl-1-cyclohexen-1-yl)-3-buten-2-one]										Type [1, 9]: Bottom; Volatility ([1]; Table 10, woody note): 35.41 μg/l air; Odor Threshold ([2]; Table 10, woody note): 3.58E−05 μg/l air
C=CCCC(=O)C1=CCCC(C)(C)C1 [1-(5,5-dimethyl-1-cyclohexen-1-yl)-4-penten-1-one]	Bottom	38.43 μg/l air	38.43 μg/l air	Bottom			1.64E−06 μg/l air			Odor Threshold [2, 5]: 1.64E−06 μg/l air; Odor Value [2, 5]: 2.34E+07
Cc1occc(=O)c1O [3-HYDROXY-2-METHYL-4(4H)-PYRANONE]			92.42 μg/l air	Middle						Volatility [1, 10]: 92.42 μg/l air; Type ([1]; Table 8, perfuming compounds having a sweet note, note type by volatility): Middle; Odor Threshold [2, 5]: 4.17E−04 μg/l air; Odor Value [2, 5]: 2.22E+05; Odor Threshold [2, 10]: 4.17E−04 μg/l air; Odor Value [2, 10]: 2.22E+05
CC1CCCC2(C)CCCCC12O (racemic)	Top	330.48 μg/l air					5.32E−06 μg/l air			
O=C1CCC2(CCCCC2)O1 [1-oxaspiro[4.5]decan-2-one]										Volatility ([1]; Table 9, gourmand note): 62.86 μg/l air; Type ([1]; Table 9, perfuming compounds having a gourmand note, note type by volatility): Middle; Odor Threshold ([2]; Table 9, gourmand note): 2.90E−04 μg/l air
COC(=O)c1c(C)cc(O)c(C)c1O [METHYL 2,4-DIHYDROXY-3,6-DIMETHYLBENZOATE]										Volatility (μg/l air) ([1]; Table 4, watery note): 1.52 μg/l air; Type ([1]; Table 4, watery note, top, middle or bottom note): bottom (perfuming compounds having a volatility ranging from 49 to 0.1 μg/l in air are referred to as “bottom notes”); Odor Threshold (μg/l air) ([2]; Table 4, watery note): 4.89E−06 μg/l air; Odor Value ([2]; Table 4, watery note, equals volatility divided by odor threshold): 3.11E+05
CC1CCC2C(C)(C)C3CC12CCC3(C)O (racemic)										Type [1, 9]: Bottom; Volatility ([1]; Table 10, woody note): 11.83 μg/l air; Odor Threshold ([2]; Table 10, woody note): 3.38E−02 μg/l air
CCCCCC/C=C/C(=O)OC [methyl (2E)-2-nonenoate]	Top	264.84 μg/l air	264.84 μg/l air	TOP (perfuming compounds having a volatility ranging from 70,000 to 100 μg/l in air are referred to as “top notes”)			5.84E−02 μg/l air			
